Structures can show the parent of a compound that is named as a salt. Active and inactive are the calls of the source. Cut-off read from the data, not from the text of the source, for most assays here: actives have a measured Kd and inactives only a lower limit.
Experiments:
Aurora kinase B = Aurora kinase B (Homo sapiens, UniProt Q96GD4)
[1] = molecular target: Cyclin-dependent kinase 6 (Homo sapiens, UniProt Q00534)
[2] = molecular target: Tyrosine-protein kinase CSK (Homo sapiens, UniProt P41240)
Chain of Tyrosine-protein kinase CSK (P41240 whole entry): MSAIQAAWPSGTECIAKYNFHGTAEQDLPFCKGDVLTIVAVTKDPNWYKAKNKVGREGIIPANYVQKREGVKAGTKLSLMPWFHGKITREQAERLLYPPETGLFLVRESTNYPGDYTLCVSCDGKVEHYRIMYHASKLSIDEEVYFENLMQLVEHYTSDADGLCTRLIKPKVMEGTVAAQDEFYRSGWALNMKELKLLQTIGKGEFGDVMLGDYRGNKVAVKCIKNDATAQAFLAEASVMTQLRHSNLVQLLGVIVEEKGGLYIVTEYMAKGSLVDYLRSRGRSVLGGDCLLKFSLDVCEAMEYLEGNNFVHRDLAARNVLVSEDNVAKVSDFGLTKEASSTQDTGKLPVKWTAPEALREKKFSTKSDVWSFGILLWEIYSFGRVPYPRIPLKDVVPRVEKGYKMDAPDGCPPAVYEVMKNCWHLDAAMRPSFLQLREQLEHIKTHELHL

[3] = molecular target: Tyrosine-protein kinase Fer (Homo sapiens, UniProt P16591)
Chain of Tyrosine-protein kinase Fer (P16591 whole entry): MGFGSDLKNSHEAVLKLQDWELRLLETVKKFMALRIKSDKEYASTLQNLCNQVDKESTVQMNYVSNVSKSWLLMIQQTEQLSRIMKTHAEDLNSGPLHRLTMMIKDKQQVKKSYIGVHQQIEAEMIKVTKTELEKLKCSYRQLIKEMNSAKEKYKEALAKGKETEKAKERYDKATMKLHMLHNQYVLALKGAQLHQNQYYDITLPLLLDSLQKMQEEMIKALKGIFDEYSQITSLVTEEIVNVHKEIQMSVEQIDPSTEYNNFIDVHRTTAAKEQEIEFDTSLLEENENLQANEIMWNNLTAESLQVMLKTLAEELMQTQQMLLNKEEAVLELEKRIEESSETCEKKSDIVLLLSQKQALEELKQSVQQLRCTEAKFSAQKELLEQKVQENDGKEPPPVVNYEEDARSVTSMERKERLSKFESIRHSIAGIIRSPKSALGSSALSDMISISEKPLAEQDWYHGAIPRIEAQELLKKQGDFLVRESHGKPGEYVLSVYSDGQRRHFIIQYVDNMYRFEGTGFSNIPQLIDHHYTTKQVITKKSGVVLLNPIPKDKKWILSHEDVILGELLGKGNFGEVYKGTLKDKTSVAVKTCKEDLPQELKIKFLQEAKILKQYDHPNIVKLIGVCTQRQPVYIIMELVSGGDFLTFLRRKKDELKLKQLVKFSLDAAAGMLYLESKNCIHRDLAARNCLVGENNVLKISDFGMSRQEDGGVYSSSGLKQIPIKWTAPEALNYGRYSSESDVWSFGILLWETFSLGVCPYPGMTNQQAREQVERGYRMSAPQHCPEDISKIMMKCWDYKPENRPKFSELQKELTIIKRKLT

[4] = molecular target: Tyrosine-protein kinase Fyn (Homo sapiens, UniProt P06241)
Chain of Tyrosine-protein kinase Fyn (P06241 whole entry): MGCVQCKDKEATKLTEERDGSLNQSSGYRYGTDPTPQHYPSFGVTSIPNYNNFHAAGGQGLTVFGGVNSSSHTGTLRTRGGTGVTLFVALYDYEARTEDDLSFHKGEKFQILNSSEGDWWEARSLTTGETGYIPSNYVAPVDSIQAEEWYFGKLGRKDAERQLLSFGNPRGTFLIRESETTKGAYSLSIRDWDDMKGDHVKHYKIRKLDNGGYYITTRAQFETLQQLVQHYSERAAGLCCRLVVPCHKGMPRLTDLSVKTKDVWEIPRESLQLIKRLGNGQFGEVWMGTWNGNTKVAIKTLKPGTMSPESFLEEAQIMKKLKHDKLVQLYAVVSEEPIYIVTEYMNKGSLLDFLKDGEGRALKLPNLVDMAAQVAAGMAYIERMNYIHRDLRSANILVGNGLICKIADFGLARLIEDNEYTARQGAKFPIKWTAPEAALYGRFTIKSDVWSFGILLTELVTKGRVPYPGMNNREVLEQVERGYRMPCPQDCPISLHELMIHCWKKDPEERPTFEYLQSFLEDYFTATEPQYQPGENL

[5] = molecular target: Guanine nucleotide-binding protein G(i) subunit alpha-2 (Homo sapiens, UniProt P04899)
[6] = molecular target: T1, MAP kinase-activated protein kinase 5 (Homo sapiens, UniProt Q8IW41)
T1 sequence (Q8IW41 whole entry): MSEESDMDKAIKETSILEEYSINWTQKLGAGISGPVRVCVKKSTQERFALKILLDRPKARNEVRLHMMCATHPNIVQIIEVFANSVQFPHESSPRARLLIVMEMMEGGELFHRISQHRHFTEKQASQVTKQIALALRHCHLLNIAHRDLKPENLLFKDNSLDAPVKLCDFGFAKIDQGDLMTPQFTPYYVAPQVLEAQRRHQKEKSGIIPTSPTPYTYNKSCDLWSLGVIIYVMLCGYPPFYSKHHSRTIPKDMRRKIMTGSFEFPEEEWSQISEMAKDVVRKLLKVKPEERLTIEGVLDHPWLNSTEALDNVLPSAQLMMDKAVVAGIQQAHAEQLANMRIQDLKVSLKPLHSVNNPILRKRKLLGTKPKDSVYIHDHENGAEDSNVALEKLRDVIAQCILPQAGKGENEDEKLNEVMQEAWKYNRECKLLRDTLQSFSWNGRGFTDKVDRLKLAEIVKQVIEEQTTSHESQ

[7] = molecular target: Maternal embryonic leucine zipper kinase (Homo sapiens, UniProt Q14680)
Chain of Maternal embryonic leucine zipper kinase (Q14680 whole entry): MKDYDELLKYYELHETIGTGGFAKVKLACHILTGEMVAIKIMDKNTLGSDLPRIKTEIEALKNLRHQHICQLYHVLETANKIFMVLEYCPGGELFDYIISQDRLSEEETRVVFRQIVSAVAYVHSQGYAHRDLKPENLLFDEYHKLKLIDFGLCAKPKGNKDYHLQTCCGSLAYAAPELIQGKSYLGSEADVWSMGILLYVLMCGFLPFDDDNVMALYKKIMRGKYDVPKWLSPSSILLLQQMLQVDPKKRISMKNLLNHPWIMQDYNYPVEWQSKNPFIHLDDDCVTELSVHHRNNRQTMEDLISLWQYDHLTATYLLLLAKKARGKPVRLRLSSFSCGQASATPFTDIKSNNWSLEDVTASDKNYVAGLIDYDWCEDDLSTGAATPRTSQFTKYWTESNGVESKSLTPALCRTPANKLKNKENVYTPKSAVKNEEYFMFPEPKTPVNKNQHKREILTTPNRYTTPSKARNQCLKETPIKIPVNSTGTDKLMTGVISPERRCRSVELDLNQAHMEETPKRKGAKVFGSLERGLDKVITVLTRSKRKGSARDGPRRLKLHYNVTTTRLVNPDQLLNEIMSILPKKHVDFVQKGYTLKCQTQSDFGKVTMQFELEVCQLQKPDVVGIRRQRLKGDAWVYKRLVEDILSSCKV

[8] = molecular target: T2, Serine/threonine-protein kinase Nek2 (Homo sapiens, UniProt P51955)
T2 sequence (P51955 whole entry): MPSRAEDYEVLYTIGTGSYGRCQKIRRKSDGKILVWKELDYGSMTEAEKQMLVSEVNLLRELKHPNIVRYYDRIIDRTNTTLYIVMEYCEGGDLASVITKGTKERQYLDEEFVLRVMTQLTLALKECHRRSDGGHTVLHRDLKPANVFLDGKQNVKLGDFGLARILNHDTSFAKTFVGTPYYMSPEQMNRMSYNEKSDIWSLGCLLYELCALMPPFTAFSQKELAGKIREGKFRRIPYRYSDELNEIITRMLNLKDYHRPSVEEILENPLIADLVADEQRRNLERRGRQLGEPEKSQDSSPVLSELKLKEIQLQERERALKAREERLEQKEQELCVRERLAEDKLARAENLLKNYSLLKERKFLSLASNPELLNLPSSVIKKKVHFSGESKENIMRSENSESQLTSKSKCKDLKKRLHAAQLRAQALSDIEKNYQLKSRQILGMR

[9] = molecular target: T3, Phosphatidylinositol 5-phosphate 4-kinase type-2 gamma (Homo sapiens, UniProt Q8TBX8)
T3 sequence (Q8TBX8 whole entry): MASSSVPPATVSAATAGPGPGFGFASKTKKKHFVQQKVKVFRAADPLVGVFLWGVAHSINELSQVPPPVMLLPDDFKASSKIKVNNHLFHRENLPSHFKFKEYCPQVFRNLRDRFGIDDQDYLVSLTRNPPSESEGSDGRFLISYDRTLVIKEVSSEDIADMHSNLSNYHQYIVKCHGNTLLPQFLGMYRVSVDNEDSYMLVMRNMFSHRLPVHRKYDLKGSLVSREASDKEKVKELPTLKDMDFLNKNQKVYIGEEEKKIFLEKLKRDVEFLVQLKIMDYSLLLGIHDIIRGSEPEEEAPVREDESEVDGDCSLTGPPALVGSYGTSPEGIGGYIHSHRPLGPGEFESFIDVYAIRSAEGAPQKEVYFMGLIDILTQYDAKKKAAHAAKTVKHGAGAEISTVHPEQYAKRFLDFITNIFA

ADP/ATP translocase 2 = molecular target: T4, ADP/ATP translocase 2 (Homo sapiens, UniProt P05141)
T4 sequence (P05141 whole entry): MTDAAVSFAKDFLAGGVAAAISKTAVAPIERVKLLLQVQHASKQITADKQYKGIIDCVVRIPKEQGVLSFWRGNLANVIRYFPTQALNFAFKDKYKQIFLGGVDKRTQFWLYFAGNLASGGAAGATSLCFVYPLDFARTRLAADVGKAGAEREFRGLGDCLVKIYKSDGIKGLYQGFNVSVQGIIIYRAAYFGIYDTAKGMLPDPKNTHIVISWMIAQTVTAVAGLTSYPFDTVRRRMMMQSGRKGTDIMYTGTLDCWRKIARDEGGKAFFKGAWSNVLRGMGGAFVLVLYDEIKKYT

[10] = molecular target: Serine/threonine-protein kinase 16 (Homo sapiens, UniProt O75716)
Chain of Serine/threonine-protein kinase 16 (O75716 whole entry): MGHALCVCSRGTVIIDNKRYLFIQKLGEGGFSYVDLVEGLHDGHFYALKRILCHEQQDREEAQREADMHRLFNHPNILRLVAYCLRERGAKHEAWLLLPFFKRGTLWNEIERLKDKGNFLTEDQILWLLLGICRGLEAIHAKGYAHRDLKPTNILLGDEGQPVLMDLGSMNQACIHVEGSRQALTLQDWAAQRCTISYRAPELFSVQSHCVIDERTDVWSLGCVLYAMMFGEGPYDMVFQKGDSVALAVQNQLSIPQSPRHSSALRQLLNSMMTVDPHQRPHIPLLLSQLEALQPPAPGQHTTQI

[11] = molecular target: Serine/threonine-protein kinase 26 (Homo sapiens, UniProt Q9P289)
Chain of Serine/threonine-protein kinase 26 (Q9P289 whole entry): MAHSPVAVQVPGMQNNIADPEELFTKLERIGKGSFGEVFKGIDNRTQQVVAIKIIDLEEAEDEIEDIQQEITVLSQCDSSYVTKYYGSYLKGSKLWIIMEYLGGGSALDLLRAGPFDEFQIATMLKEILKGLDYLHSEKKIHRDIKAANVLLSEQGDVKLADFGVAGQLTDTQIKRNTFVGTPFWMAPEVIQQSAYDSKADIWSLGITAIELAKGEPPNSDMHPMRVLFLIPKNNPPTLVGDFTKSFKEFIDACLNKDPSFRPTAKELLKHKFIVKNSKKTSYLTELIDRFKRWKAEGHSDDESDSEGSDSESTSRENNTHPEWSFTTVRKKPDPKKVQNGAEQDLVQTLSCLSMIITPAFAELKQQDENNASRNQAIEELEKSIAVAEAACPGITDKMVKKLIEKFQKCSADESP

[12] = molecular target: Mitogen-activated protein kinase kinase kinase 20 (Homo sapiens, UniProt Q9NYL2)
Chain of Mitogen-activated protein kinase kinase kinase 20 (Q9NYL2 whole entry): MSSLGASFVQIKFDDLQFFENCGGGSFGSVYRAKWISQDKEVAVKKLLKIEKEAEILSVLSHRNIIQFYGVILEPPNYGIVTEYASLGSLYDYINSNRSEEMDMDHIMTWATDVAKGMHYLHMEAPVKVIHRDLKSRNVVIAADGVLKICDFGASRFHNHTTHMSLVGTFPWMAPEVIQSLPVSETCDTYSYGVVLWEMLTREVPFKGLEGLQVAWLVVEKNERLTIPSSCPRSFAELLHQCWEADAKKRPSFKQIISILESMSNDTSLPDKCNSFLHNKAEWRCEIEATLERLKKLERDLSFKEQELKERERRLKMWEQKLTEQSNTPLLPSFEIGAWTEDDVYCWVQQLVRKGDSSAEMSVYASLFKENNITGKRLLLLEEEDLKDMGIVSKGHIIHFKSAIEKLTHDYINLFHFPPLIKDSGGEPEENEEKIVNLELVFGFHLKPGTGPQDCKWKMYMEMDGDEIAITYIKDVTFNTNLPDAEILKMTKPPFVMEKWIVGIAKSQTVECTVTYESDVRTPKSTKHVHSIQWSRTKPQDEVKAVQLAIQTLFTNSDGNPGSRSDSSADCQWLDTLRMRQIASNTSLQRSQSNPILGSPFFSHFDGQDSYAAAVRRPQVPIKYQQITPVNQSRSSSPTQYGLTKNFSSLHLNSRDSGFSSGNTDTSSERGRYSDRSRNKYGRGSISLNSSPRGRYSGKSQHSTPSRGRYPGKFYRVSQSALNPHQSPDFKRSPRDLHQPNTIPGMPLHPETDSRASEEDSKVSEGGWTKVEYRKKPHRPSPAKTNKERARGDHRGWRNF
Note: in the data inactive means no Kd found up to 30 µM.

Chain of Cyclin-dependent kinase 6 (Q00534 whole entry): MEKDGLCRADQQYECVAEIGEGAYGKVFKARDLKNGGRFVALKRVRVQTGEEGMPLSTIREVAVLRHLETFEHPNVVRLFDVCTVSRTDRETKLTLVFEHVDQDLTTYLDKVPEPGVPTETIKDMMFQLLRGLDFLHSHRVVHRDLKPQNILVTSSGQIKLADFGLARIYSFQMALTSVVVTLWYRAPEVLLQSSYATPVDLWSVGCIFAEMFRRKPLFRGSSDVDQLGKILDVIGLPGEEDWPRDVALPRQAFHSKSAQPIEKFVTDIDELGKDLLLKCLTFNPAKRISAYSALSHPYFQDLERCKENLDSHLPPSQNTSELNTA
Chain of Aurora kinase B (Q96GD4 whole entry): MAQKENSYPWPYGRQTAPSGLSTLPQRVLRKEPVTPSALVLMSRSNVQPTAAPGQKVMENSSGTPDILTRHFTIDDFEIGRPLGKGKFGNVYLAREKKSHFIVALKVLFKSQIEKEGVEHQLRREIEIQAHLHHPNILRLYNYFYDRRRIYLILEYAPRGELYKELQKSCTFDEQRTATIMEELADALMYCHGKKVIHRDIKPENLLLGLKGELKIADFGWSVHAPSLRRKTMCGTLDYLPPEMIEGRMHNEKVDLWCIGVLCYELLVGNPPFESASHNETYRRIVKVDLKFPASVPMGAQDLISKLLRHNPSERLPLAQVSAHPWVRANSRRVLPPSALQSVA

Compound	Kd (Aurora kinase B)	Kd [1]	Kd [2]	Kd [3]	Kd [4]	Kd [5]	Kd [6]	Kd [7]	Kd [8]	Kd [9]	Kd (ADP/ATP translocase 2)	Kd [10]	Kd [11]	Kd [12]
COc1cc([C@@H]2c3cc4c(cc3[C@H](O)[C@H]3COC(=O)[C@@H]23)OCO4)cc(OC)c1OC [AXL-1717]	> 30 µM (inactive)	> 30 µM (inactive)	> 30 µM (inactive)	> 30 µM (inactive)	> 30 µM (inactive)	> 30 µM (inactive)	> 30 µM (inactive)	> 30 µM (inactive)	> 30 µM (inactive)	> 30 µM (inactive)	> 30 µM (inactive)	> 30 µM (inactive)	> 30 µM (inactive)	> 30 µM (inactive)
Cn1cnc2c(F)c(Nc3ccc(Br)cc3F)c(C(=O)NOCCO)cc21 [BINIMETINIB]	> 30 µM (inactive)	> 30 µM (inactive)	> 30 µM (inactive)	> 30 µM (inactive)	> 30 µM (inactive)	> 30 µM (inactive)	> 30 µM (inactive)	> 30 µM (inactive)	> 30 µM (inactive)	> 30 µM (inactive)	> 30 µM (inactive)	> 30 µM (inactive)	> 30 µM (inactive)	> 30 µM (inactive)
COc1cc2ncnc(Oc3cccc(NC(=O)Nc4cc(C(C)(C)C(F)(F)F)on4)c3)c2cc1OC [CEP-32496]	> 30 µM (inactive)	> 30 µM (inactive)	> 30 µM (inactive)	0.98 µM (active)	> 30 µM (inactive)	> 30 µM (inactive)	> 30 µM (inactive)	> 30 µM (inactive)	> 30 µM (inactive)	> 30 µM (inactive)	> 30 µM (inactive)	> 30 µM (inactive)	> 30 µM (inactive)	0.998 µM (active)
Cc1cc(Nc2ncc(Cl)c(Nc3ccccc3S(=O)(=O)C(C)C)n2)c(OC(C)C)cc1C1CCNCC1 [CERITINIB]	> 30 µM (inactive)	> 30 µM (inactive)	> 30 µM (inactive)	0.214 µM (active)	> 30 µM (inactive)	> 30 µM (inactive)	> 30 µM (inactive)	> 30 µM (inactive)	> 30 µM (inactive)	> 30 µM (inactive)	> 30 µM (inactive)	> 30 µM (inactive)	> 30 µM (inactive)	> 30 µM (inactive)
COc1c(OCCCN2CCOCC2)ccc2c1N=C(NC(=O)c1cnc(N)nc1)N1CCN=C21 [COPANLISIB]	> 30 µM (inactive)	> 30 µM (inactive)	> 30 µM (inactive)	> 30 µM (inactive)	> 30 µM (inactive)	> 30 µM (inactive)	> 30 µM (inactive)	> 30 µM (inactive)	> 30 µM (inactive)	> 30 µM (inactive)	> 30 µM (inactive)	> 30 µM (inactive)	> 30 µM (inactive)	> 30 µM (inactive)
COCC(=O)NC/C=C/c1ccc2ncnc(Nc3ccc(Oc4ccc(C)nc4)c(C)c3)c2c1 [CP-724714]	> 30 µM (inactive)	> 30 µM (inactive)	> 30 µM (inactive)	> 30 µM (inactive)	> 30 µM (inactive)	> 30 µM (inactive)	> 30 µM (inactive)	> 30 µM (inactive)	> 30 µM (inactive)	> 30 µM (inactive)	> 30 µM (inactive)	> 30 µM (inactive)	> 30 µM (inactive)	> 30 µM (inactive)
C#Cc1cccc(Nc2ncnc3cc(OC)c(OCCCCCCC(=O)NO)cc23)c1 [CUDC-101]	> 30 µM (inactive)	> 30 µM (inactive)	> 30 µM (inactive)	> 30 µM (inactive)	> 30 µM (inactive)	> 30 µM (inactive)	> 30 µM (inactive)	> 30 µM (inactive)	> 30 µM (inactive)	> 30 µM (inactive)	> 30 µM (inactive)	> 30 µM (inactive)	> 30 µM (inactive)	> 30 µM (inactive)
CCS(=O)(=O)N1CCN(c2ccc(Nc3ncc(C(N)=O)c(NC4CC4)n3)cc2)CC1 [Cerdulatinib Hydrochloride]	3.79 µM (active)	> 30 µM (inactive)	> 30 µM (inactive)	> 30 µM (inactive)	> 30 µM (inactive)	> 30 µM (inactive)	> 30 µM (inactive)	> 30 µM (inactive)	> 30 µM (inactive)	> 30 µM (inactive)	> 30 µM (inactive)	> 30 µM (inactive)	0.029 µM	> 30 µM (inactive)
Cc1cccc(-c2nn3c(c2-c2ccnc4ccc(C(N)=O)cc24)CCC3)n1 [GALUNISERTIB]	> 30 µM (inactive)	> 30 µM (inactive)	> 30 µM (inactive)	> 30 µM (inactive)	> 30 µM (inactive)	> 30 µM (inactive)	> 30 µM (inactive)	> 30 µM (inactive)	> 30 µM (inactive)	> 30 µM (inactive)	> 30 µM (inactive)	> 30 µM (inactive)	> 30 µM (inactive)	> 30 µM (inactive)
COc1ccc(S(=O)(=O)N(C(C)=O)c2ccccc2/C=C/c2cc[n+]([O-])cc2)cc1 [HMN-214]	> 30 µM (inactive)	> 30 µM (inactive)	> 30 µM (inactive)	> 30 µM (inactive)	> 30 µM (inactive)	> 30 µM (inactive)	> 30 µM (inactive)	> 30 µM (inactive)	> 30 µM (inactive)	> 30 µM (inactive)	> 30 µM (inactive)	> 30 µM (inactive)	> 30 µM (inactive)	> 30 µM (inactive)
CNC(=O)c1cccc2cc(Oc3ccnc4cc(OCC5(N)CC5)c(OC)cc34)ccc12 [LUCITANIB]	22.9 µM (active)	> 30 µM (inactive)	> 30 µM (inactive)	> 30 µM (inactive)	> 30 µM (inactive)	> 30 µM (inactive)	> 30 µM (inactive)	> 30 µM (inactive)	> 30 µM (inactive)	> 30 µM (inactive)	> 30 µM (inactive)	> 30 µM (inactive)	> 30 µM (inactive)	> 30 µM (inactive)
CN(C[C@@H]1COCCO1)S(=O)(=O)Nc1ccc2ccc3ncc(-c4cnn(C)c4)cc3c(=O)c2c1 [MK-2461]	> 30 µM (inactive)	> 30 µM (inactive)	> 30 µM (inactive)	> 30 µM (inactive)	> 30 µM (inactive)	> 30 µM (inactive)	> 30 µM (inactive)	> 30 µM (inactive)	> 30 µM (inactive)	1.03 µM (active)	> 30 µM (inactive)	> 30 µM (inactive)	> 30 µM (inactive)	> 30 µM (inactive)
